Earlier results, collected in US9364565B2, “Medical device with coating for capturing genetically-altered cells and methods of using same” (OrbusNeich Medical, Inc., priority 2000, dated 2016).

Legend:
VEGFR-2 = VEGFR-2 (Homo sapiens, UniProt P35968)
endothelial cells = settings: 100 μg

Chain of VEGFR-2 (P35968 20-1356): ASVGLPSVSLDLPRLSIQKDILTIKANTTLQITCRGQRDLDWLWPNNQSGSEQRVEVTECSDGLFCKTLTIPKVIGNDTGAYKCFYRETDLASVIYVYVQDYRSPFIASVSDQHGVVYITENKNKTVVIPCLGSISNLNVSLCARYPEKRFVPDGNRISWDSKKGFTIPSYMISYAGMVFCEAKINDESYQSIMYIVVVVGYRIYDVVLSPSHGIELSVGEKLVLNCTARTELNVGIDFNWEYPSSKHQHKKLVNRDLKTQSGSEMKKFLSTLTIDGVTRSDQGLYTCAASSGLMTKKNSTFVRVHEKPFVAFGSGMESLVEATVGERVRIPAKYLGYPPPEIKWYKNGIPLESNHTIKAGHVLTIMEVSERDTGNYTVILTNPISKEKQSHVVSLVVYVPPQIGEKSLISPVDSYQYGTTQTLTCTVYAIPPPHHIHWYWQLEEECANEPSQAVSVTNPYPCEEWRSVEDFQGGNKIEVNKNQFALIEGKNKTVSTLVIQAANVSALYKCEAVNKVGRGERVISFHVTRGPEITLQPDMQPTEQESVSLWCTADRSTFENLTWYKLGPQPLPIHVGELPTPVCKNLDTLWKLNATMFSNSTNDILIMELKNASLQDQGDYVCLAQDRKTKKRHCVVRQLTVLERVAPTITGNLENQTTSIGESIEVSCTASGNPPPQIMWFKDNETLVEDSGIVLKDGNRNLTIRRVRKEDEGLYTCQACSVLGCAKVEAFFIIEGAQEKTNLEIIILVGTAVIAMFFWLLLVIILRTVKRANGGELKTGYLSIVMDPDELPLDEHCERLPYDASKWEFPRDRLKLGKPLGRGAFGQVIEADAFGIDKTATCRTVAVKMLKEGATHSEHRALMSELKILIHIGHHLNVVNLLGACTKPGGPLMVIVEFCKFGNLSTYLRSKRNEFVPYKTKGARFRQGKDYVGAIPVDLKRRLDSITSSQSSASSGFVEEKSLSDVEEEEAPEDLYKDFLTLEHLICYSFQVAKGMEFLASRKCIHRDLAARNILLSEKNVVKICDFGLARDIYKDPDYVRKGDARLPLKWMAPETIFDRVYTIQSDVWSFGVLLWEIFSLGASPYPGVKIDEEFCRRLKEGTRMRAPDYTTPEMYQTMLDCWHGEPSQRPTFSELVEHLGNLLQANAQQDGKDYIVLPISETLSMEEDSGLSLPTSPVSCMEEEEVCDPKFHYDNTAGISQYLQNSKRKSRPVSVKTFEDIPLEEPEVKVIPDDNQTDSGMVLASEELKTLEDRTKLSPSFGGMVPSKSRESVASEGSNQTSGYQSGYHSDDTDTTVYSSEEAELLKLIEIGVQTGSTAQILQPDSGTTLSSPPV

binding to VEGFR-2 (VEGFR-2) | Compound | adherence of endothelial cells on a medical device (endothelial cells)
bind to VEGFR-2 | Cc1[nH]c(/C=C2\C(=O)Nc3ccccc32)c(C)c1CCC(=O)O [SU6668] | –
– | VEGF | stimulate the adherence of endothelial cells on a medical device
